The source of these data is ChEMBL document CHEMBL1130921, “The cholesterol metabolite cholest-4-en-3-one and its 3-oxo derivatives suppress body weight gain, body fat accumulation and serum lipid concentration in mice” (Bioorg Med Chem Lett, 1998).

The species named for data set [1] is Mus musculus. The data set is described as follows: Compound was evaluated for its potency in CDF1 mice and the serum metabolite levels were determined. Format: ADME, organism-based.
The species entered for data set [2] is Mus musculus. Description: Feed efficiency was calculated by dividing body weight gain by feed consumption in mouse. The class given is functional.
The species entered for data set [3] is Mus musculus. The data set is described as follows: Evaluated for potency in CDF1 mice and the inhibition of body weight gain was determined. The class given is functional.
For data set [4], the species on record is Mus musculus. Description: Compound was evaluated for its potency in CDF1 mice and the serum cholesterol levels were determined. The class given is ADME, organism-based.
The species named for data set [5] is Mus musculus. The data set is described as follows: Compound was evaluated for its potency in CDF1 mice and the serum triglyceride levels were determined. The class given is ADME, organism-based.
The species entered for data set [6] is Mus musculus. Description: Evaluated for potency in CDF1 mice and the ability of it to decrease feed consumption was determined. Format: functional.
Data set [7] is filed under the species Mus musculus. The data set is described as follows: Compound was evaluated for its potency in CDF1 mice and the abdominal fat weight was determined. The class given is functional, Abdomen.

Regarding `CC(C)CCC[C@@H](C)[C@H]1CC[C@H]2[C@@H]3C=CC4=CC(=O)C=C[C@]4(C)[C@H]3CC[C@]12C`, the Serum metabolite in data set [1] amounted to 0 mg/dL. The Feed efficiency in data set [2] was 0.05. This molecule also had a Body weight gain in data set [3] of 0.27 g/day. The molecule further registered a Serum cholesterol in data set [4] of 206.3 mg/dL. Moreover, the Serum triglyceride in data set [5] is 390.4 mg/dL. The molecule further registered a Feed consumption in data set [6] of 5.41 g/day.

Consider `CC(C)CCC[C@@H](C)[C@H]1CC[C@H]2[C@@H]3C[C@@H](O)C4=CC(=O)CC[C@]4(C)[C@H]3CC[C@]12C`, for which, in data set [1], the Serum metabolite stood at 0 mg/dL. In data set [2], the Feed efficiency is on record as 0.05. In addition, the Body weight gain in data set [3] was found to be 0.28 g/day. Also, the Abdominal fat in data set [7] is reported as 0.8 g. The molecule further gave a Serum cholesterol in data set [4] of 136.7 mg/dL. This molecule had a Serum triglyceride in data set [5] of 120 mg/dL. This molecule returned a Feed consumption in data set [6] of 5.7 g/day.

Take `CCCCCCCCC(=O)OC1CC[C@@]2(C)C(=CC[C@H]3[C@@H]4CC[C@H]([C@H](C)CCCC(C)C)[C@@]4(C)CC[C@@H]32)C1` (stereo partly specified): the Feed efficiency in data set [2] was 0.1. The Body weight gain in data set [3] was determined as 0.52 g/day. Also, the Feed consumption in data set [6] turned out to be 5.28 g/day.

With `CC(C)CCC[C@@H](C)[C@H]1CC[C@H]2[C@@H]3CC(=O)C4=CC(=O)CC[C@]4(C)[C@H]3CC[C@]12C`, the Serum metabolite in data set [1] is 0 mg/dL. For the same molecule, the Feed efficiency in data set [2] is -0.06. In addition, in data set [3], the Body weight gain is -0.36 g/day. Moreover, the Abdominal fat in data set [7] is 0.3 g. The same molecule had a Serum cholesterol in data set [4] of 110 mg/dL. The Serum triglyceride in data set [5] was 133.6 mg/dL. Also, the Feed consumption in data set [6] was 6 g/day.

With `CC(C)CCC[C@@H](C)[C@H]1CC[C@H]2[C@@H]3CC=C4C=C(N5CCCC5)CC[C@]4(C)[C@H]3CC[C@]12C`, the Serum metabolite in data set [1] is 22 mg/dL. In addition, the Feed efficiency in data set [2] is recorded as -0.03. In addition, in data set [3], the Body weight gain is -0.18 g/day. The molecule also showed an Abdominal fat in data set [7] of 0.41 g. The Serum cholesterol in data set [4] stood at 158.1 mg/dL. For the same molecule, the Serum triglyceride in data set [5] stood at 277.7 mg/dL. The same molecule registered a Feed consumption in data set [6] of 6.1 g/day.

Take `CC[C@H](CC[C@@H](C)[C@H]1CC[C@H]2[C@@H]3CCC4CC(O)CC[C@]4(C)[C@H]3CC[C@]12C)C(C)C` (stereo partly specified): in data set [2], the Feed efficiency is reported as 0.09. Besides, the Body weight gain in data set [3] was determined as 0.49 g/day. The Feed consumption in data set [6] was determined as 5.43 g/day.

For `CC(C)CCC[C@@H](C)[C@H]1CC[C@H]2[C@@H]3C[C@H](O)[C@]4(O)CC(=O)CC[C@]4(C)[C@H]3CC[C@]12C`, the Feed efficiency in data set [2] is listed as 0.11. Also, in data set [3], the Body weight gain came out at 0.58 g/day. The molecule further returned a Feed consumption in data set [6] of 5.39 g/day.

For `CC[C@H](/C=C/[C@@H](C)[C@H]1CC[C@H]2[C@@H]3CC=C4CC(=O)CC[C@]4(C)[C@H]3CC[C@]12C)C(C)C`, the Feed efficiency in data set [2] was 0.08. The Body weight gain in data set [3] stood at 0.52 g/day. The molecule also returned a Feed consumption in data set [6] of 6.37 g/day.

For the molecule `CC(C)CCC[C@@H](C)[C@H]1CC[C@H]2[C@@H]3CC[C@H]4CC(O)CC[C@]4(C)[C@H]3CC[C@]12C` (stereo partly specified), in data set [1], the Serum metabolite turned out to be 23 mg/dL. Moreover, the Feed efficiency in data set [2] is on record as 0.07. The Body weight gain in data set [3] was 0.38 g/day. Moreover, the Abdominal fat in data set [7] is given as 0.9 g. In data set [4], this molecule displayed a Serum cholesterol of 148.1 mg/dL. This molecule yielded a Serum triglyceride in data set [5] of 212.7 mg/dL. In addition, in data set [6], the Feed consumption was determined as 5.45 g/day.

With `CC(C)CCC[C@@H](C)[C@H]1CC[C@H]2[C@@H]3CC=C4CC(OC(=O)c5ccccc5)CC[C@]4(C)[C@H]3CC[C@]12C` (stereo partly specified), in data set [2], the Feed efficiency was 0.08. In data set [3], this molecule gave a Body weight gain of 0.46 g/day. In addition, the Feed consumption in data set [6] came out at 5.57 g/day.

For `CC(C)CCC[C@@H](C)[C@H]1CC[C@H]2[C@@H]3CC[C@@]45O[C@@H]4C(=O)CC[C@]5(C)[C@H]3CC[C@]12C`, the Serum metabolite in data set [1] was 0 mg/dL. The Feed efficiency in data set [2] is reported as 0.08. Besides, the Body weight gain in data set [3] turned out to be 0.46 g/day. The Abdominal fat in data set [7] turned out to be 1.12 g. The same molecule registered a Serum cholesterol in data set [4] of 141.6 mg/dL. Further, the Serum triglyceride in data set [5] is 218 mg/dL. In data set [6], this molecule registered a Feed consumption of 6.14 g/day.

For `CC(=O)OC1=CC2=CC[C@H]3[C@@H]4CC[C@H]([C@H](C)CCCC(C)C)[C@@]4(C)CC[C@@H]3[C@@]2(C)CC1`, in data set [1], the Serum metabolite is 22 mg/dL. Moreover, in data set [2], the Feed efficiency was 0.06. In data set [3], the Body weight gain was determined as 0.33 g/day. In addition, the Abdominal fat in data set [7] was 1.03 g. The molecule also had a Serum cholesterol in data set [4] of 187.5 mg/dL. Moreover, the Serum triglyceride in data set [5] was found to be 119.9 mg/dL. Moreover, the Feed consumption in data set [6] amounted to 5.64 g/day.

`CC(C)CCC[C@@H](C)[C@H]1CC[C@H]2[C@@H]3CCC4=C(CSc5ccccc5)C(=O)CC[C@]4(C)[C@H]3CC[C@]12C`: the Feed efficiency in data set [2] is listed as 0.09. For the same molecule, the Body weight gain in data set [3] stood at 0.56 g/day. In addition, the Feed consumption in data set [6] was found to be 6.23 g/day.

With `CC[C@H](/C=C/[C@@H](C)[C@H]1CC[C@H]2[C@@H]3CC=C4CC(O)CC[C@]4(C)[C@H]3CC[C@]12C)C(C)C` (stereo partly specified), the Feed efficiency in data set [2] is 0.09. In data set [3], this molecule had a Body weight gain of 0.57 g/day. Besides, the Feed consumption in data set [6] was 6.3 g/day.

For `CC(C)CCC[C@@H](C)[C@H]1CC[C@H]2[C@@H]3C=CC4=CC(=O)CC[C@]4(C)[C@H]3CC[C@]12C`, the Serum metabolite in data set [1] worked out at 22 mg/dL. The Feed efficiency in data set [2] is 0.07. In addition, the Body weight gain in data set [3] was 0.32 g/day. In data set [7], this molecule yielded an Abdominal fat of 0.9 g. Further, in data set [4], the Serum cholesterol came to 112.7 mg/dL. In data set [5], this molecule gave a Serum triglyceride of 172.6 mg/dL. Further, the Feed consumption in data set [6] was 4.71 g/day.

Take `CC(=O)OC1CC[C@@]2(C)C(=CC[C@H]3[C@@H]4CC[C@H]([C@H](C)CCCC(C)C)[C@@]4(C)CC[C@@H]32)C1` (stereo partly specified): the Feed efficiency in data set [2] is 0.1. In data set [3], this molecule showed a Body weight gain of 0.52 g/day. Further, the Feed consumption in data set [6] turned out to be 5.28 g/day.

As to `CC(C)CCC[C@@H](C)[C@H]1CC[C@H]2[C@@H]3CC=C4CCCC[C@]4(C)[C@H]3CC[C@]12C`, the Serum metabolite in data set [1] worked out at 0 mg/dL. Also, the Feed efficiency in data set [2] is on record as 0.08. The Body weight gain in data set [3] came to 0.56 g/day. The Serum cholesterol in data set [4] was determined as 165.8 mg/dL. Further, the Serum triglyceride in data set [5] came out at 253.6 mg/dL. This molecule showed a Feed consumption in data set [6] of 6.95 g/day.

Turning to `CC(C)CCC[C@@H](C)[C@H]1CC[C@H]2[C@@H]3CCC4C[C@@H](O)CC[C@]4(C)[C@H]3CC[C@]12C` (stereo partly specified), in data set [2], the Feed efficiency was 0.09. This molecule also gave a Body weight gain in data set [3] of 0.52 g/day. Besides, the Feed consumption in data set [6] stood at 5.83 g/day.

Take `CC(C)CCC[C@@H](C)[C@H]1CC[C@H]2[C@@H]3CCC4CC(O)CC[C@]4(C)[C@H]3CC[C@]12C` (stereo partly specified): in data set [2], the Feed efficiency is listed as 0.09. This molecule also had a Body weight gain in data set [3] of 0.58 g/day. Also, in data set [6], the Feed consumption stood at 6.48 g/day.

On to `CC(C)CCC[C@@H](C)[C@H]1CC[C@H]2[C@@H]3CC[C@@H]4CC(=O)CC[C@]4(C)[C@H]3CC[C@]12C`, for which, in data set [1], the Serum metabolite was found to be 22 mg/dL. Moreover, the Feed efficiency in data set [2] was 0.09. Besides, in data set [3], the Body weight gain was 0.5 g/day. The same molecule had an Abdominal fat in data set [7] of 1.25 g. In data set [4], this molecule returned a Serum cholesterol of 161.3 mg/dL. Moreover, the Serum triglyceride in data set [5] was 291.2 mg/dL. In data set [6], this molecule displayed a Feed consumption of 5.39 g/day.

With `CC(C)CCC[C@@H](C)[C@H]1CC[C@H]2[C@@H]3C[C@H](Br)[C@]4(Br)CC(=O)CC[C@]4(C)[C@H]3CC[C@]12C`, in data set [2], the Feed efficiency is 0.08. The Body weight gain in data set [3] is 0.43 g/day. The molecule further showed a Feed consumption in data set [6] of 5.72 g/day.

Regarding `CC(C)CCC[C@@H](C)[C@H]1CC[C@H]2[C@@H]3CCC4=C(Br)C(=O)CC[C@]4(C)[C@H]3CC[C@]12C`, in data set [2], the Feed efficiency was 0.08. The same molecule yielded a Body weight gain in data set [3] of 0.52 g/day. The same molecule returned a Feed consumption in data set [6] of 6.58 g/day.

Turning to `CC(C)CCC[C@@H](C)[C@H]1CC[C@H]2[C@@H]3CC[C@@H]4CC(O)CC[C@]4(C)[C@H]3CC[C@]12C` (stereo partly specified), the Feed efficiency in data set [2] is given as 0.09. Besides, in data set [3], the Body weight gain came out at 0.55 g/day. In addition, the Feed consumption in data set [6] is 6.1 g/day.

In the case of `CC(C)CCC[C@@H](C)[C@H]1CC[C@H]2[C@@H]3CCC4=CC(=O)C=C[C@]4(C)[C@H]3CC[C@]12C`, the Serum metabolite in data set [1] was determined as 0 mg/dL. Also, the Feed efficiency in data set [2] was 0.03. The molecule further gave a Body weight gain in data set [3] of 0.15 g/day. For the same molecule, the Abdominal fat in data set [7] was 0.61 g. Also, the Serum cholesterol in data set [4] came out at 165.4 mg/dL. For the same molecule, the Serum triglyceride in data set [5] stood at 266.9 mg/dL. Moreover, the Feed consumption in data set [6] turned out to be 4.94 g/day.

On to `CC(C)CCC[C@@H](C)[C@H]1CC[C@H]2[C@@H]3C[C@H](Br)C4=CC(=O)CC[C@]4(C)[C@H]3CC[C@]12C`, for which the Serum metabolite in data set [1] is 22 mg/dL. In data set [2], the Feed efficiency is 0.06. Further, the Body weight gain in data set [3] was 0.26 g/day. Also, in data set [7], the Abdominal fat is listed as 0.81 g. Besides, the Serum cholesterol in data set [4] came to 176.8 mg/dL. In data set [5], this molecule registered a Serum triglyceride of 257.3 mg/dL. The Feed consumption in data set [6] worked out at 4.2 g/day.
